Assay results as given in US20040138199A1, “Benzoxazines and derivatives thereof as therapeutic agents” (priority 2002, published 2004).

Biological target: T1, p101/p110γ protein (PI3Kγ) (Homo sapiens, UniProt P48736)
T1 construct: HA; made in house; host or cells: Spodoptera frugiperda (Sf9) cells, baculovirus coinfection
Test: PI3Kγ In Vitro Kinase Assay
Format: biochemical
Details: purified recombinant p101/p110γ with G protein β1/γ2 subunits; 20 μM ATP, 25 μM PIP2; 20 minutes at room temperature; radioactive PIP3 readout
Outline: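 Baculovirus/Sf9-expressed p101/p110γ (~2.7 nM) with G protein β1/γ2, 20 μM ATP plus [γ-32P]ATP, PIP2/PE micelles (25 μM PIP2, 300 μM PE, 10 mM MgCl2) in HEPES buffer. Reaction 20 min at room temperature, stopped with H3PO4; radiolabelled PIP3 counted on filters to derive IC50 (μM).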

T1 sequence (P48736 whole entry, species assumed): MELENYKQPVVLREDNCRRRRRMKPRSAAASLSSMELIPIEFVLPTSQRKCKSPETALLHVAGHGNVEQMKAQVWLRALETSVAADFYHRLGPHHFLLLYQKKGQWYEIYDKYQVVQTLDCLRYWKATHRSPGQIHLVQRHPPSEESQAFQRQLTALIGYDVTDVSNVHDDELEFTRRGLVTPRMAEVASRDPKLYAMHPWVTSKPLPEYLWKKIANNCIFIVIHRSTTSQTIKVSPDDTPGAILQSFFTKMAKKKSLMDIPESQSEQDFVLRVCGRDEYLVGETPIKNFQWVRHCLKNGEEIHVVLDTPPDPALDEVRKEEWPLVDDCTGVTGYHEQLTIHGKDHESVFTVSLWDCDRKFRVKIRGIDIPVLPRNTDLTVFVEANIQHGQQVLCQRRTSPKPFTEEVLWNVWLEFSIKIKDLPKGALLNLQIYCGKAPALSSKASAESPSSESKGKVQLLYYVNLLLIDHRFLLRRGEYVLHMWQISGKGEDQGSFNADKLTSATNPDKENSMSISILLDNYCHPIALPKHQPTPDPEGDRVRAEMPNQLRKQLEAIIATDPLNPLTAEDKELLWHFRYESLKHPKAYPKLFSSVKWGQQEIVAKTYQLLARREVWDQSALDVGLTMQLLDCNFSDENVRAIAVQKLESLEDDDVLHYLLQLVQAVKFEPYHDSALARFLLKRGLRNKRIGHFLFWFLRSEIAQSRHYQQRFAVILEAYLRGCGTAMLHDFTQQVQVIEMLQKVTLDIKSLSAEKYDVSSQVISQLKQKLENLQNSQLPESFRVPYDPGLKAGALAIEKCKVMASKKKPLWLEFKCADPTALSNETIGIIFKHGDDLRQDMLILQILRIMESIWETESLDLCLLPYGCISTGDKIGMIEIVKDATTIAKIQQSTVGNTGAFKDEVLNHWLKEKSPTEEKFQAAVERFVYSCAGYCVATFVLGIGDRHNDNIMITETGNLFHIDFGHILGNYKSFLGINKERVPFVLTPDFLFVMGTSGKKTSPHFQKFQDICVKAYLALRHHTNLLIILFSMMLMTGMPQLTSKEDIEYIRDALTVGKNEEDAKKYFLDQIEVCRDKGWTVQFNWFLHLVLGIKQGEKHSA
T1 sequence (Q8WYR1 whole entry partner, species assumed): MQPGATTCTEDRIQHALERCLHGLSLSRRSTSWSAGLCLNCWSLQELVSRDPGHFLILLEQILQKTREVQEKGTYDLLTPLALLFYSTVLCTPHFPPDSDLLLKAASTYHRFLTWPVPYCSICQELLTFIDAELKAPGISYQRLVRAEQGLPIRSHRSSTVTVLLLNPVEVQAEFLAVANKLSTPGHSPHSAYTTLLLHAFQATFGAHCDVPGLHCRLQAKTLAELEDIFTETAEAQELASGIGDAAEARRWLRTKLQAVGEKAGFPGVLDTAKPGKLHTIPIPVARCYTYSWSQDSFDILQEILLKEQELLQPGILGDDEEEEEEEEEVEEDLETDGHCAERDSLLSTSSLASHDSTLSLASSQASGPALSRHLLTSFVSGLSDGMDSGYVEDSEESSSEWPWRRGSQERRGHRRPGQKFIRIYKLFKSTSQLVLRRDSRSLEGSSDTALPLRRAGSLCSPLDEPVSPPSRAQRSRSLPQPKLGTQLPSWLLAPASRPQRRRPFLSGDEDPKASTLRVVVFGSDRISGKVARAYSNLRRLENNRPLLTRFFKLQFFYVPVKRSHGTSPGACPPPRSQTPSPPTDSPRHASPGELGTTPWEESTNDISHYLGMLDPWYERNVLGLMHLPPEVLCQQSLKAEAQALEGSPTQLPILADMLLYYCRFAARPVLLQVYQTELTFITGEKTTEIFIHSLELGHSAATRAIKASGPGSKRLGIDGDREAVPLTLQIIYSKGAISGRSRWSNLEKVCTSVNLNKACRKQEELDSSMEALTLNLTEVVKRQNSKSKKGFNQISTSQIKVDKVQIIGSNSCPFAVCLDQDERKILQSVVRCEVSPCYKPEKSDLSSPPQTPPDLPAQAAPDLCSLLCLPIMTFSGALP

IC50 [µM] | Compound
0.005 | CCCCC(=O)N1CCOc2ccc(C=C3SC(=S)NC3=O)cc21 [Example 96, 5-(4-Pentanoyl-3,4-dihydro-2H-1,4-benzoxazin-6-ylmethylene)-2-thioxo-thiazolidin-4-one]
1.61 | CC(C)(C)C(=O)N1CCOc2ccc(C=C3SC(=S)NC3=O)cc21 [Example 97, 5-[4-(2,2-Dimethyl-propionyl)-3,4-dihydro-2H-1,4-benzoxazin-6-ylmethylene]-2-thioxo-thiazolidin-4-one]
0.025 | CCCCCCCCC(=O)N1CCOc2ccc(C=C3SC(=S)NC3=O)cc21 [Example 98, 5-[4-(4-Nonanoyl)-3,4-dihydro-2H-1,4-benzoxazin-6-ylmethylene]-2-thioxo-thiazolidin-4-one]
0.275 | CCCCC(CC)C(=O)N1CCOc2ccc(C=C3SC(=S)NC3=O)cc21 (centres unmarked) [Example 99, 5-[4-(2-Ethyl-hexanoyl)-3,4-dihydro-2H-1,4-benzoxazin-6-ylmethylene]-2-thioxo-thiazolidin-4-one]
0.535 | CC(=O)OC(C)C(=O)N1CCOc2ccc(C=C3SC(=S)NC3=O)cc21 (centres unmarked) [Example 100, Acetic acid 1-methyl-2-oxo-2-[6-(4-oxo-2-thioxo-thiazolidin-5-ylidenemethyl)-2,3-dihydro-1,4-benzoxazin-4-yl]-ethyl ester]
0.02 | COC(=O)CCC(=O)N1CCOc2ccc(C=C3SC(=S)NC3=O)cc21 [Example 101, 4-Oxo-4-[6-(4-oxo-2-thioxo-thiazolidin-5-ylidenemethyl)-2,3-dihydro-1,4-benzoxazin-4-yl]-butyric acid methyl ester]
0.037 | CC(=O)N1CCC(C(=O)N2CCOc3ccc(C=C4SC(=S)NC4=O)cc32)CC1 [Example 102, 5-[4-(1-Acetyl-piperidine-4-carbonyl)-3,4-dihydro-2H-1,4-benzoxazin-6-ylmethylene]-2-thioxo-thiazolidin-4-one]
0.445 | O=C1NC(=S)SC1=Cc1ccc2c(c1)NCCCO2 [Example 103, 5-(6,7,8,9-Tetrahydro-5-oxa-9-aza-benzocyclohepten-2-ylmethylene)-2-thioxo-thiazolidin-4-one]
0.4 | O=C1NC(=S)SC1=Cc1ccc2c(c1)N(C(=O)Oc1cccc3ccccc13)CCCO2 [Example 106, 2-(4-Oxo-2-thioxo-thiazolidin-5-ylidenemethyl)-7,8-dihydro-6H-5-oxa-9-aza-benzocycloheptene-9-carboxylic acid naphthalen-1-yl ester]
0.64 | COC(=O)c1ccc(OC(=O)N2CCCOc3ccc(C=C4SC(=S)NC4=O)cc32)cc1 [Example 108, 2-(4-Oxo-2-thioxo-thiazolidin-5-ylidenemethyl)-7,8-dihydro-6H-5-oxa-9-aza-benzocycloheptene-9-carboxylic acid 4-methoxycarbonyl-phenyl ester]
2.03 | O=C1NC(=S)SC1=Cc1ccc2c(c1)N(C(=O)COc1ccc(Cl)cc1)CCCO2 [Example 109, 5-{9-[2-(4-Chloro-phenoxy)-acetyl]-6,7,8,9-tetrahydro-5-oxa-9-aza-benzocyclohepten-2-ylmethylene}-2-thioxo-thiazolidin-4-one]
1.53 | O=C1NC(=S)SC1=Cc1ccc2c(c1)N(C(=O)c1ccc3nonc3c1)CCCO2 [Example 116, 5-[9-(Benzofurazan-5-carbonyl)-6,7,8,9-tetrahydro-5-oxa-9-aza-benzocyclohepten-2-ylmethylene]-2-thioxo-thiazolidin-4-one]
1.91 | O=C1NC(=S)SC1=Cc1ccc2c(c1)N(C(=O)c1cccnc1)CCCO2 [Example 117, 5-[9-(Pyridine-3-carbonyl)-6,7,8,9-tetrahydro-5-oxa-9-aza-benzocyclohepten-2-ylmethylene]-2-thioxo-thiazolidin-4-one]
1.87 | O=C1NC(=S)SC1=Cc1ccc2c(c1)N(C(=O)Nc1ccc(Oc3ccccc3)cc1)CCCO2 [Example 118, 2-(4-Oxo-2-thioxo-thiazolidin-5-ylidenemethyl)-7,8-dihydro-6H-5-oxa-9-aza-benzocycloheptene-9-carboxylic acid (4-phenoxy-phenyl)-amide]
1.87 | O=C1NC(=S)SC1=Cc1ccc2c(c1)N(C(=O)Nc1ccc(Cl)cc1C(F)(F)F)CCCO2 [Example 120, 2-(4-Oxo-2-thioxo-thiazolidin-5-ylidenemethyl)-7,8-dihydro-6H-5-oxa-9-aza-benzocycloheptene-9-carboxylic acid (4-chloro-2-trifluoromethyl-phenyl)-amide]
2.17 | COc1cccc(NC(=O)N2CCCOc3ccc(C=C4SC(=S)NC4=O)cc32)c1 [Example 122, 2-(4-Oxo-2-thioxo-thiazolidin-5-ylidenemethyl)-7,8-dihydro-6H-5-oxa-9-aza-benzocycloheptene-9-carboxylic acid (3-methoxy-phenyl)-amide]
3.9 | O=C1NC(=S)SC1=Cc1ccc2c(c1)N(C(=O)c1ccco1)CCCO2 [Example 123, 5-[9-(Furan-2-carbonyl)-6,7,8,9-tetrahydro-5-oxa-9-aza-benzocyclohepten-2-ylmethylene]-2-thioxo-thiazolidin-4-one]
